Results as given in patent US8535901B2, “Peptidase substrates” (bioMérieux, S.A., priority 2009, dated 2013).

Assays:
Assay type in all cases: cell-based
[1] = test system: Enterobacter aerogenes NCTC 10 102; assay: Colony color on lactose/sucrose agar medium with pH indicator; details: indicator 0.05 g/l with lactose, sucrose and 5-bromo-4-chloro-3-indoxyl-β-D-glucopyranoside 0.05 g/l, 24 hours at 37° C., visual
Procedure: (§1) Seven strains of microorganisms originating from the NCTC collection and belonging to various species of bacteria are inoculated onto these media by quadrant streaking of 10 μl of a suspension at 0.5 McFarland diluted to a 1/20.

[2] = test system: Enterobacter cloacae NCTC 11 936; assay: as above; details: indicator 0.05 g/l with lactose, sucrose and 5-bromo-4-chloro-3-indoxyl-β-D-glucopyranoside 0.05 g/l, 24 hours at 37° C., visual
Procedure: as §1

[3] = test system: Morganella morganii NCTC 235; assay: as above; details: indicator 0.05 g/l with lactose, sucrose and 5-bromo-4-chloro-3-indoxyl-β-D-glucopyranoside 0.05 g/l, 24 hours at 37° C., visual
Procedure: as §1

[4] = test system: Escherichia coli NCTC 12 076; assay: as above; details: indicator 0.05 g/l with lactose, sucrose and 5-bromo-4-chloro-3-indoxyl-β-D-glucopyranoside 0.05 g/l, 24 hours at 37° C., visual
Procedure: as §1

[5] = test system: Klebsiella pneumoniae NCTC 10 896; assay: as above; details: indicator 0.05 g/l with lactose, sucrose and 5-bromo-4-chloro-3-indoxyl-β-D-glucopyranoside 0.05 g/l, 24 hours at 37° C., visual
Procedure: as §1

[6] = test system: Citrobacter freundii NCTC 9750; assay: as above; details: indicator 0.05 g/l with lactose, sucrose and 5-bromo-4-chloro-3-indoxyl-β-D-glucopyranoside 0.05 g/l, 24 hours at 37° C., visual
Procedure: as §1

[7] = test system: Shigella boydii NCTC 9327; assay: as above; details: indicator 0.05 g/l with lactose, sucrose and 5-bromo-4-chloro-3-indoxyl-β-D-glucopyranoside 0.05 g/l, 24 hours at 37° C., visual
Procedure: as §1

[8] = test system: Enterococcus faecalis NCTC 775; assay: Peptidase detection on Columbia medium with substrate; parameters: key to Grow. (growth): NG: No growth; 0.5: weak growth; 1: moderate growth; 2: good growth; details: 40 mg substrate in 400 ml Columbia medium, 24 hours at 37° C.
Procedure: (§2) The 6 media were distributed into Petri dishes 90 mm in diameter, in a proportion of 20 ml per dish.
(§3) Seventeen strains of microorganisms stemming from collections and belonging to various species of bacteria and yeasts are inoculated in spots of approximately 10 000 colony-forming units.
(§4) The media are incubated for 24 hours at 37° C., and then the colonies formed are examined visually, with or without the addition of acid and under a UV lamp at 365 nm.

[9] = test system: Enterococcus faecium NCTC 7 171; assay: as above; parameters: key to Grow. (growth): NG: No growth; 0.5: weak growth; 1: moderate growth; 2: good growth; details: 40 mg substrate in 400 ml Columbia medium, 24 hours at 37° C.
Procedure: as §2, §3, §4

[10] = test system: Staphylococcus aureus NCTC 6 571; assay: as above; parameters: key to Grow. (growth): NG: No growth; 0.5: weak growth; 1: moderate growth; 2: good growth; details: 40 mg substrate in 400 ml Columbia medium, 24 hours at 37° C.
Procedure: as §2, §3, §4

[11] = test system: Enterobacter cloacae NCTC 11 936; assay: as above; parameters: key to Grow. (growth): NG: No growth; 0.5: weak growth; 1: moderate growth; 2: good growth; details: 40 mg substrate in 400 ml Columbia medium, 24 hours at 37° C.
Procedure: as §2, §3, §4

[12] = test system: Listeria monocytogenes NCTC 11 994; assay: as above; parameters: key to Grow. (growth): NG: No growth; 0.5: weak growth; 1: moderate growth; 2: good growth; details: 40 mg substrate in 400 ml Columbia medium, 24 hours at 37° C.
Procedure: as §2, §3, §4

[13] = test system: Candida albicans ATCC 90 028; assay: as above; parameters: key to Grow. (growth): NG: No growth; 0.5: weak growth; 1: moderate growth; 2: good growth; details: 40 mg substrate in 400 ml Columbia medium, 24 hours at 37° C.
Procedure: as §2, §3, §4

[14] = test system: Escherichia coli NCTC 10 418; assay: as above; parameters: key to Grow. (growth): NG: No growth; 0.5: weak growth; 1: moderate growth; 2: good growth; details: 40 mg substrate in 400 ml Columbia medium, 24 hours at 37° C.
Procedure: as §2, §3, §4

[15] = test system: Serratia marcescens NCTC 10 211; assay: as above; parameters: key to Grow. (growth): NG: No growth; 0.5: weak growth; 1: moderate growth; 2: good growth; details: 40 mg substrate in 400 ml Columbia medium, 24 hours at 37° C.
Procedure: as §2, §3, §4

[16] = test system: Yersinia enterocolitica NCTC 11 176; assay: as above; parameters: key to Grow. (growth): NG: No growth; 0.5: weak growth; 1: moderate growth; 2: good growth; details: 40 mg substrate in 400 ml Columbia medium, 24 hours at 37° C.
Procedure: as §2, §3, §4

[17] = test system: Candida glabrata NCPF 3 943; assay: as above; parameters: key to Grow. (growth): NG: No growth; 0.5: weak growth; 1: moderate growth; 2: good growth; details: 40 mg substrate in 400 ml Columbia medium, 24 hours at 37° C.
Procedure: as §2, §3, §4

[18] = test system: Pseudomonas aeruginosa NCTC 10 662; assay: as above; parameters: key to Grow. (growth): NG: No growth; 0.5: weak growth; 1: moderate growth; 2: good growth; details: 40 mg substrate in 400 ml Columbia medium, 24 hours at 37° C.
Procedure: as §2, §3, §4

[19] = test system: Streptococcus pyogenes NCTC 8 306; assay: as above; parameters: key to Grow. (growth): NG: No growth; 0.5: weak growth; 1: moderate growth; 2: good growth; details: 40 mg substrate in 400 ml Columbia medium, 24 hours at 37° C.
Procedure: as §2, §3, §4

[20] = test system: Bacillus subtilis NCTC 9 372; assay: as above; parameters: key to Grow. (growth): NG: No growth; 0.5: weak growth; 1: moderate growth; 2: good growth; details: 40 mg substrate in 400 ml Columbia medium, 24 hours at 37° C.
Procedure: as §2, §3, §4

[21] = test system: Providencia rettgeri NCTC 7 475; assay: as above; parameters: key to Grow. (growth): NG: No growth; 0.5: weak growth; 1: moderate growth; 2: good growth; details: 40 mg substrate in 400 ml Columbia medium, 24 hours at 37° C.
Procedure: as §2, §3, §4

[22] = test system: Staphylococcus aureus NCTC 11 939; assay: as above; parameters: key to Grow. (growth): NG: No growth; 0.5: weak growth; 1: moderate growth; 2: good growth; details: 40 mg substrate in 400 ml Columbia medium, 24 hours at 37° C.
Procedure: as §2, §3, §4

[23] = test system: Staphylococcus epidermidis NCTC 11 047; assay: as above; parameters: key to Grow. (growth): NG: No growth; 0.5: weak growth; 1: moderate growth; 2: good growth; details: 40 mg substrate in 400 ml Columbia medium, 24 hours at 37° C.
Procedure: as §2, §3, §4

[24] = test system: Salmonella typhimurium NCTC 74; assay: as above; parameters: key to Grow. (growth): NG: No growth; 0.5: weak growth; 1: moderate growth; 2: good growth; details: 40 mg substrate in 400 ml Columbia medium, 24 hours at 37° C.
Procedure: as §2, §3, §4

Nc1ccc(C=Cc2ccncc2)cc1 [4-4′-Aminostyrylpyridine, 4-(4′-Aminostyryl)pyridine]
Colorless: Colony color [3] | Colony color [7]
Yellow: Colony color [4] | Colony color [6]
Green: Colony color [1] | Colony color [2] | Colony color [5]

C[n+]1ccc(C=Cc2ccc(NC(=O)CCN)cc2)cc1.[Cl-] [β-Ala-ASPM^+, β-Alanyl-4-(4′-amidostyryl)-N-methyl-pyridinium chloride]
Orange: Col. (colour of the colonies) ([15]; visual) | Col. (colour of the colonies) ([18]; visual)
1: Grow. (growth) [17] | Grow. (growth) [19] | Grow. (growth) [24]
Pale green: Col. (colour of the colonies) ([8]; visual) | Col. (colour of the colonies) ([9]; visual) | Col. (colour of the colonies) ([12]; visual) | Col. (colour of the colonies) ([13]; visual) | Col. (colour of the colonies) ([16]; visual) | Col. (colour of the colonies) ([17]; visual) | Col. (colour of the colonies) ([19]; visual) | Col. (colour of the colonies) ([20]; visual) | Col. (colour of the colonies) ([24]; visual)
Green: Col. (colour of the colonies) ([10]; visual) | Col. (colour of the colonies) ([11]; visual) | Col. (colour of the colonies) ([14]; visual) | Col. (colour of the colonies) ([21]; visual) | Col. (colour of the colonies) ([22]; visual) | Col. (colour of the colonies) ([23]; visual)
2: Grow. (growth) [8] | Grow. (growth) [9] | Grow. (growth) [10] | Grow. (growth) [11] | Grow. (growth) [12] | Grow. (growth) [13] | Grow. (growth) [14] | Grow. (growth) [15] | Grow. (growth) [16] | Grow. (growth) [18] | Grow. (growth) [20] | Grow. (growth) [21] | Grow. (growth) [22] | Grow. (growth) [23]
